Target: T1, Amine oxidase [flavin-containing] A (Homo sapiens, UniProt P21397)
T1 sequence (P21397 whole entry): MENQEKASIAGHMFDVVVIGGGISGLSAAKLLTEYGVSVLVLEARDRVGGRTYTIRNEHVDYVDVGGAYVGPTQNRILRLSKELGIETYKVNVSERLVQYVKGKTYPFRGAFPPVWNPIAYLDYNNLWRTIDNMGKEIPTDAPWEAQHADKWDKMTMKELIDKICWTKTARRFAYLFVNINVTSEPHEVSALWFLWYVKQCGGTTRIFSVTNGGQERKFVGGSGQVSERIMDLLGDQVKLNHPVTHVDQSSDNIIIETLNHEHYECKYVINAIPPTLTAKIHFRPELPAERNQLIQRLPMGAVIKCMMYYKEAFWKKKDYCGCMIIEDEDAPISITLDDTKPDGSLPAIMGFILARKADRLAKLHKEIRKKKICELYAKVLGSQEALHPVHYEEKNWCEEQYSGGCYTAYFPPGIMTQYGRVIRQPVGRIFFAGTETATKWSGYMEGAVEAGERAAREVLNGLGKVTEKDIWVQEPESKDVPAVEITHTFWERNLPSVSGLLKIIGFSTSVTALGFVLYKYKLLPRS
Test: Concentration required to inhibit monoamine oxidase activity by 50%

`COc1cc(O)c2c(=O)c3c(OC)c(OC)ccc3oc2c1` [DECUSSATIN] was tested, and the IC50 was 19 µM.
In the case of `O=c1c2ccccc2oc2ccc(O)cc12`, the IC50 is reported as 3.8 µM.
Compound `COc1cc2oc3c(OC)cccc3c(=O)c2c(OC)c1OC` has an IC50 of 37 µM.
`COc1cc(O)c2c(=O)c3cccc(OC)c3oc2c1` showed an IC50 of 29 µM.
`COc1cccc2c(=O)c3ccccc3oc12` was tested, and the IC50 was 30 µM.
With `COc1c(O)ccc2c(=O)c3ccccc3oc12` the IC50 was 65 µM.
Compound `O=c1c2cc(O)ccc2oc2cc(O)cc(O)c12` has an IC50 of 8 µM.
`O=c1c2cc(O)c(O)cc2oc2cc(O)cc(O)c12` was tested, and the IC50 was 25 µM.
`O=c1c2ccccc2oc2c(O)cccc12` showed an IC50 of 1.3 µM.
Compound `O=c1c2ccccc2oc2ccccc12` [XANTHONE] has an IC50 of 0.84 µM.
In the case of `CC(C)=CCc1cc(O)c2oc3c(O)cccc3c(=O)c2c1O`, the IC50 is reported as 3.3 µM.
For `COc1cccc2oc3c(O)cccc3c(=O)c12`, the IC50 was 51 µM.
`O=c1c2cccc(O)c2oc2cccc(O)c12` was tested, and the IC50 was 0.73 µM.
`O=c1c2ccccc2oc2cc(O)ccc12` showed an IC50 of 1.1 µM.
In the case of `CC(C)=CCc1cc(O)c2c(=O)c3cccc(O)c3oc2c1O`, the IC50 is reported as 40 µM.
`COc1c(O)cc2oc3c(OC)c(O)ccc3c(=O)c2c1O` was tested, and the IC50 was 32 µM.
In the case of `COc1ccc2c(=O)c3ccccc3oc2c1`, the IC50 is reported as 0.18 µM.
Compound `Cc1c(O)cc2oc3ccccc3c(=O)c2c1O` has an IC50 of 3.7 µM.
With `COc1ccc2oc3ccccc3c(=O)c2c1` the IC50 was 5.3 µM.
Compound `COc1cc(OC)c2c(=O)c3ccccc3oc2c1` has an IC50 of 20.2 µM.
For `COc1cc(O)c2c(=O)c3ccccc3oc2c1`, the IC50 was 0.11 µM.
With `CC(C)=CCC/C(C)=C\Cc1c(O)cc(O)c2c(=O)c3cccc(O)c3oc12` the IC50 was 37 µM.
`COc1c(O)cc2oc3c(OC)cccc3c(=O)c2c1O` gave an IC50 of 51 µM.
For `Cc1c(O)cc(O)c2c(=O)c3ccccc3oc12`, the IC50 was 4.3 µM.
Compound `COc1ccc2c(=O)c3ccccc3oc2c1O` has an IC50 of 18 µM.
Work on `COc1cc(O)c2c(=O)c3c(O)c(O)ccc3oc2c1` [GENTIAKOCHIANIN] yielded an IC50 of 8.5 µM.
`COc1cccc2c(=O)c3ccc(O)cc3oc12` gave an IC50 of 23 µM.
With `COc1cc(OC)c2c(=O)c3cccc(OC)c3oc2c1` the IC50 was 58 µM.
Compound `COc1c(O)cc2oc3c(O)cccc3c(=O)c2c1O` has an IC50 of 2.7 µM.
`O=c1c2ccccc2oc2cccc(O)c12` was tested, and the IC50 was 0.31 µM.
`COc1cc(O)c2c(=O)c3c(O)ccc(O)c3oc2c1` [BELLIDIFOLIN] was tested, and the IC50 was 0.66 µM.
With `COc1ccc2c(=O)c3cccc(OC)c3oc2c1` the IC50 was 36 µM.
`COc1cccc2oc3ccccc3c(=O)c12` showed an IC50 of 0.9 µM.
In the case of `Cc1c(O)c(Br)c2oc3ccccc3c(=O)c2c1O`, the IC50 is reported as 14.9 µM.
Compound `COc1cc(O)c2c(=O)c3cccc(O)c3oc2c1` has an IC50 of 0.04 µM.
`Cc1c(O)c(Cl)c2oc3ccccc3c(=O)c2c1O` gave an IC50 of 27 µM.
`O=c1c2ccc(O)cc2oc2c(O)cccc12` gave an IC50 of 4.5 µM.
`COc1ccc2c(=O)c3ccccc3oc2c1OC` gave an IC50 of 31 µM.
`O=c1c2c(O)cc(O)cc2oc2ccc(O)c(O)c12` showed an IC50 of 24 µM.
`O=c1c2cccc(O)c2oc2cc(O)cc(O)c12` showed an IC50 of 3.8 µM.
In the case of `COc1cc(O)c2oc3c(C)ccc(OC)c3c(=O)c2c1`, the IC50 is reported as 24 µM.
`O=c1c2c(O)cc(O)cc2oc2c(O)ccc(O)c12` [DEMETHYLBELLIDIFOLIN] was tested, and the IC50 was 13 µM.

Source: ChEMBL document CHEMBL1137053, “QSAR modeling of the MAO inhibitory activity of xanthones derivatives” (Bioorg Med Chem Lett, 2004)
